# Reference: patent publication US9173935B2, “Phospholipid drug analogs” (Telormedix SA, priority 2010, dated 2015)
# Read-outs that look alike come from different tables or passages of the source.
# Tests used:
# [1] = Plasma stability, second experiment, human plasma; details: human, plasma
# Procedure: Second experiment: Test compounds (5 mM in DMSO) were diluted at the final concentration of 250 μM with ACN-MeOH 1:1.
# Human plasma (1.180 ml) was spiked with 20 μl of 250 μM solution of the compound (4.16 μM final concentration) and aliquots of 50 μl volume were taken at 0, 15, 30, 60, 120 min and 5 hrs, and immediately quenched with 200 μl of a solution of Verapamil 250 ng/ml (internal standard, I.S.) in ACN:MeOH 95:5. Samples were then centrifuged for 20 min at 3000 rpm at 10° C. and analyzed as reported below. […] The supernatant fractions were analyzed by LC/MS/MS. Zero-time incubations were used as 100% values.
# Stability was calculated as percentage remaining of the area ratio compound/I.S. at each time point vs. area ratio compound/I.S. at time 0 min.
# [2] = Storage stability by HPLC (solid or chloroform solution; temperature, light); type: physicochemical; details: room temperature, natural light
# Procedure: At this point, a stability study was conducted on batch CH730/16/8g.
# The samples were analyzed at t=0 and after 20 days.
# [3] = system: recombinant protein antigens from Plasmodium falciparum and Mycobacterium ulcerans; assay: Pilot immunization study with adjuvanted protein antigens; type: in vivo, mice; details: three s.c. immunizations, 10 nMol adjuvant
# Procedure: A pilot immunization study was conducted using Compound A and SC12 adjuvanted protein antigens. The immunization experiments were performed with two recombinant proteins expressed in E. coli. One antigen was derived from the malaria parasite Plasmodium falciparum and the other one from Mycobacterium ulcerans, which cause the ulcerative skin disease Buruli ulcer.
# [4] = Plasma stability and metabolic profiling, first experiment, rabbit plasma; type: in vitro ADME
# Procedure: (§1) A 10 μl of MeOH was added to improve solubility. […] The supernatant fractions were analyzed by LC/MS/MS. […] Percent loss of substrate in incubations was determined to estimate the in vitro half life of the test compound. […] Assignment of the structures was done by comparison of the MS/MS analysis of the spectra with the parent spectrum.
# [5] = Solubility, method of European Pharmacopoeia 6.0; type: physicochemical
# Procedure: The method reported in the European Pharmacopoeia 6.0 was used.
# Batch CH730/16/8g was tested according to the method described in E. Ph: DMSO was added in 0.1 mL portions to 103.7 mg of product and the suspension was shaken with a Vortex instrument for 3 min after each addition. […] The batches CH730/16/8c, CH730/16/8g and CH730/23/8e were then tested stirring each suspension for a longer time; 100 mg of each batch dissolved completely in 0.2 mL of DMSO after stirring for 30 minutes.
# RAW.264 cells = assay: Intracellular uptake in RAW.264 cells (LC-MS); type: cell-based; details: 10 microM
# Procedure: 5×10^6 RAW.264 cells were adhered overnight in 10 cm tissue culture dishes. […] […] Supernatant (2 ml) and cells (pellets) were collected by trypsinization and frozen at […] for subsequent analysis by LC-MS.
# [6] = Plasma stability, first experiment, rat plasma; type: in vitro ADME
# Procedure: (§2) A 10 μl of MeOH was added to improve solubility. […] The supernatant fractions were analyzed by LC/MS/MS. […] Percent loss of substrate in incubations was determined to estimate the in vitro half life of the test compound.
# human PBMCs = assay: IL-6 secretion in human PBMCs, two batches of Compound A and SC12; type: cell-based; details: 24 h, 4 doses
# Procedure: PBMCs were purified from two donors and plated into 96 well plates at 2×10^5 cells/well in RPMI media including human 2% heat inactivated AB serum, glutamine, Pen-strep and R-mercapto-ethanol. The cells were treated with TLR7 agonists for 24 h in 4 doses. The conditioned media was removed for ELISA analyses for IL-6, and the EC50 value determined for each compound and each batch.
# All compounds were tested in four concentrations (10-1-0.1-0.01 micromolar).
# Concentrations of IL-6 were determined by ELISA from R&D Systems using the Microsoft Excel software. The results were analyzed in Graph Pad Prism in order to prepare dose-response curves, and for determination of EC50 values.
# [7] = Plasma stability, first experiment, minipig plasma; type: in vitro ADME
# Procedure: as §2
# PBMCs = assay: IL-6 and TNF-alpha secretion in PBMCs from three donors (ELISA); type: cell-based, human; details: read-out: EC50 values, IL-6 secretion
# Procedure: EC50 values were determined for control and each drug candidate for IL-6 and TNF-alpha secretion. […] The cells were treated with TLR7 agonists for 24 hours in 7 doses. The conditioned media was removed for ELISA analyses for IL-6 and TNF-alpha, and cell survival determined by the XTT method according to the protocol from the supplier. […] Concentrations of IL-6 and TNF-alpha were determined by ELISA from R&D Systems using the Microsoft Excel Software. The results were analyzed in Graph Pad Prism in order to prepare dose-response curves, and for determination of EC50 values.
# [8] = Plasma stability and metabolic profiling, first experiment, human plasma; type: in vitro ADME
# Procedure: as §1
structure (smiles),measurement,setting,value
"COc1cc(N)c(Cl)cc1C(=O)OCCN1CCCCC1 [Compound M7319, 2-Piperidinoethyl 4-amino-5-chloro-2-methoxybenzoate, reference compound]",% Remaining,"[1]; 0 h, 4.16 μM",100%
same,% Remaining,"[1]; 1 h, 4.16 μM",23.3 ± 1.4%
same,% Remaining,"[1]; 5 h, 4.16 μM",0.01 ± 0.01%
"CCCCCCCC/C=C\CCCCCCCC(=O)OCC(COP(=O)(O)OCCNC(=O)c1ccc(Cn2c(=O)[nH]c3c(N)nc(OCCOC)nc32)cc1)OC(=O)CCCCCCC/C=C\CCCCCCCC (stereo not shown) [Compound A, 2-(4-((6-amino-2-(2-methoxyethoxy)-8-oxo-7H-purin-9(8H)-yl)methyl)benzamido)ethyl 2,3-bis(oleoyloxy)propyl phosphate]",Purity (HPLC),[2]; retest 12 Jun. 2009 (test 20 May 2009),Purity: 67.2%
same,Purity (HPLC),[2]; retest 16 Jun. 2009 (test 10 Jun. 2009),Purity: 44.8%
same,Purity (HPLC),[2]; retest 17 Jun. 2009 (test 20 May 2009),Purity: 58.9%
same,Purity (HPLC),[2]; retest 18 Jun. 2009 (test 11 Jun. 2009),Purity: 71.5%
same,Purity (HPLC),[2]; test date 10 Jun. 2009,Purity: 57.5%
same,Purity (HPLC),[2]; test date 11 Jun. 2009,Purity: 81.4%
same,Purity (HPLC),[2]; test date 20 May 2009,Purity: 89.6%
same,"Local side effects (swelling, ulcerations)",[3],No local side effects
same,Plasma stability classification,[4],unstable
same,% Remaining,[4]; 0 min,100%
same,Metabolites found,"[4]; 30 and 120 min, 50 μM",Three metabolites
same,% Remaining,[4]; 15 min,38.7 ± 3.4%
same,% Remaining,[4]; 30 min,10.2 ± 1.0%
same,% Remaining,[4]; 60 min,7.4 ± 0.1%
same,% Remaining,[4]; 120 min,4.4 ± 0.7%
same,% Remaining,[4]; 300 min,1.9 ± 0.1%
same,Solubility in DMSO,[5],soluble
same,Solubility in acetonitrile,[5],not soluble
same,Solubility in water,[5],not soluble
same,Intracellular Concentration,RAW.264 cells; incubation 1 hours,5.50 % of total
same,Intracellular Concentration,RAW.264 cells; incubation 6 hours,4.27 % of total
same,Intracellular Concentration,RAW.264 cells; incubation 16 hours,1.53 % of total
same,Plasma stability classification,[6],unstable
same,% Remaining,[6]; 0 min,100%
same,% Remaining,[6]; 15 min,73.8 ± 4.5%
same,% Remaining,[6]; 30 min,67.1 ± 8.8%
same,% Remaining,[6]; 60 min,25.2 ± 0.5%
same,% Remaining,[6]; 120 min,21.4 ± 1.9%
same,% Remaining,[6]; 300 min,15.3 ± 1.0%
same,EC50,"human PBMCs; Donor 1, listed as Compound A new 20289",721 nM
same,EC50,"human PBMCs; Donor 1, listed as Compound A old Ch730/25/8",734 nM
same,EC50,"human PBMCs; Donor 2, listed as Compound A new 20289",521 nM
same,EC50,"human PBMCs; Donor 2, listed as Compound A old Ch730/25/8",392 nM
same,Plasma stability classification,[7],unstable
same,% Remaining,[7]; 0 min,100%
same,% Remaining,[7]; 15 min,102.4 ± 3.3%
same,% Remaining,[7]; 30 min,73.3 ± 5.0%
same,% Remaining,[7]; 60 min,78.6 ± 2.9%
same,% Remaining,[7]; 120 min,33.7 ± 2.3%
same,% Remaining,[7]; 300 min,10.8 ± 0.3%
same,EC50,"PBMCs; D1, first experiments on three donors",460 nM
same,EC50,"PBMCs; D2, first experiments on three donors",740 nM
same,EC50,"PBMCs; D3, first experiments on three donors",255 nM
same,% Remaining,[1]; 0 h,100%
same,% Remaining,[1]; 0.25 h,100.6 ± 14.5%
same,% Remaining,[1]; 0.5 h,90.3 ± 13.3%
same,% Remaining,[1]; 2 h,69.8 ± 16.8%
same,Metabolites found,"[8]; 60 and 300 min, 50 μM",two of them
same,Plasma stability classification,[8]; first experiment,unstable
same,% Remaining,"[8]; first experiment, 0 min",100%
same,% Remaining,"[8]; first experiment, 15 min",99.7 (*) %
same,% Remaining,"[8]; first experiment, 30 min",40.4 ± 15.5%
same,% Remaining,"[8]; first experiment, 60 min",36.1 ± 7.6%
same,% Remaining,"[8]; first experiment, 120 min",17.4 ± 2.6%
same,% Remaining,"[8]; first experiment, 300 min",7.8 ± 3.3%
